Where no end group is shown, it is not given here.
Tests used:
[1] = biological target: T1, mouse B2 bradykinin receptor (Mus musculus, UniProt P32299); test: Effect of guanine nucleotides on binding of BK to membranes (mouse B2 receptor, COS-7); details: increasing concentrations of guanine nucleotide
T1 construct: The PCR product begins 99 bp upstream of the initiator methionine codon and ends 49 bp downstream of the stop codon; expressed in transfected cells; host or cells: COS-7 (transient), pcDNAI-Neo
T1 sequence (P32299 1-366 isoform P32299-2): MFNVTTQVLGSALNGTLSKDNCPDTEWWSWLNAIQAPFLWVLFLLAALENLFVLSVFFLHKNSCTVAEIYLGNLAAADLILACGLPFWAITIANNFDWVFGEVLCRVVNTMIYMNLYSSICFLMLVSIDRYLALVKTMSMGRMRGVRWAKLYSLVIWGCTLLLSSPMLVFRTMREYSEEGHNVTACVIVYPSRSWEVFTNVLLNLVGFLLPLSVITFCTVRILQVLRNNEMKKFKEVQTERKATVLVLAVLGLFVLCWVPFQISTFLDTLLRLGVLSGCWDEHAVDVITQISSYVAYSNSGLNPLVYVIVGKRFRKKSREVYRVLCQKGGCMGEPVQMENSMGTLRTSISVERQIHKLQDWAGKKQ
Excerpt: The binding of BK to membranes was reduced by increasing concentrations of GTP, guanosine 5'-O-(3-thiotriphosphate) or 5'guanylylimidodiphosphate.

[2] = tested on: murine AB2.1 ES cells, pBS-KO-1 transformants; test: FIAU counter-selection of pBS-KO-1 ES cell transformants; assay type: cell-based, mouse; details: FIAU 0.2 μM
Description: Targeted alteration of the bradykinin B2 gene in murine ES cells The gene replacement vector used in the B2 gene disruption experiments was the pBS-KO-1 vector. When this vector recombined with the wild-type B2 allele to generate the B2 knock-out (B2 KO), the entire coding sequence for the B2 receptor was deleted (FIG. 2). The mouse embryonic stem cell line AB2.1 was electroporated with Not I -linearized pBS-KO-1 in multiple experiments. All AB2.1 ES cells were cultured on SNL feeder cells as described (Robertson, in Teratocarcinomas and embryonic stem cells, IRL Press, pp. 71-112 (1987)). Electroporations were performed with 4×10^6 ES cells and 25 μg linearized pBS-KO-l in 0.8 ml electroporation buffer (Specialty Media, Inc.) at 300v, 250 μF using a Bio-Rad Gene Pulser. ES cell transformants were selected with the antibiotic geneticin (Gibco G418: 200 μg/ml active G418), and some transformants were counter-selected with FIAU (Bristol Myers Squibb; 0.2 μM) for enhancement of homologous recombinants. Murine leukemia inhibitory factor (LIF; ESGRO, Gibco BRL, Inc.) was used at 1000 U/ml. […] G418-and FIAU-resistant ES clones were isolated by picking and growing individual colonies, and their genomic DNAs were prepared from AB2.1 5 KO-I-transformants as described (Laird et al., Nucleic Acids Res. 19:4293 (1991).

[3] = biological target: T1, mouse B2 bradykinin receptor; test: Competition binding using 100 pM [3H]BK at the expressed mouse B2 bradykinin receptor; details: for affinity: expressed mouse B2 receptor, 100 pM [3H]BK
Description: (§1) Binding assays were then performed to determine receptor antagonist or agonist interaction. The assays utilized in the instant invention follow the method of Manning et al., J. Pharmacol. Exp. Ther., 237, 504-512 (1986). [^3 H]BK at various concentrations was incubated for 60 minutes at 25° C. with approximately 50ug membrane protein from COS-7 cells in a volume of 1 ml. The assay was terminated by filtration over Whatman GF/B filters presoaked for 3 hours in 0.1 % polyethyleneimine using a BRANDEL M-24 CELL […] (BRANDEL, Gaithersburg, Md.). The tubes were rinsed two times with 4 ml ice-cold […] and the filter bound radioactivity was quantitated by liquid scintillation counting. Nonspecific binding was determined by performing incubation in the presence of 1 uM BK and generally represents less than 5% of the total binding at 100pM ^3 H]BK. Competition binding experiments, in the presence of 100pM[^3 H]BK, were performed with varying concentrations of the test compound(s). The competition and saturation experiments were analyzed using the EBDA program of McPherson. See McPherson, G.A. J Pharmacol. Methods 14, 213-218 (1985).
To verify the pharmacological properties of the mouse bradykinin B2 receptor the coding sequence of the mouse B2 bradykinin receptor was isolated by PCR (Perkin Elmer/Cetus) using a Techne thermocycler with the template being the EcoR I by Hind III genomic fragment in pSP72 and the 5' primer 5'-[…]-3' (SEQ.ID.NO.:8) and the 3' primer 5'- […]-3' (SEQ.ID.NO.:9). The PCR product was subcloned into the Hind III and Xba I sites of the eukaryotic expression vector pcDNAI-Neo (Invitrogen). The PCR product begins 99 bp upstream of the initiator methionine codon and ends 49 bp downstream of the stop codon. The DNA sequence analysis using Sequenase (US Biochemical) of the subcloned PCR product confirmed that the sequence was identical to that in the original genomic fragment.

[4] = biological target: T2, human B2 bradykinin receptor (Homo sapiens, UniProt P30411); test: Competition binding against 100 pM [3H]BK at the cloned human B2 receptor (COS-7); details: for specificity of binding (rank order): COS-7 expressed human B2 receptor; for competition for BK binding: COS-7; for IC50: [3H]BK binding to human B2 receptor
T2 construct: placing the entire B2 clone under the control of the CMV promoter; expressed in transfected cells
T2 sequence (P30411 1-364 isoform P30411-2): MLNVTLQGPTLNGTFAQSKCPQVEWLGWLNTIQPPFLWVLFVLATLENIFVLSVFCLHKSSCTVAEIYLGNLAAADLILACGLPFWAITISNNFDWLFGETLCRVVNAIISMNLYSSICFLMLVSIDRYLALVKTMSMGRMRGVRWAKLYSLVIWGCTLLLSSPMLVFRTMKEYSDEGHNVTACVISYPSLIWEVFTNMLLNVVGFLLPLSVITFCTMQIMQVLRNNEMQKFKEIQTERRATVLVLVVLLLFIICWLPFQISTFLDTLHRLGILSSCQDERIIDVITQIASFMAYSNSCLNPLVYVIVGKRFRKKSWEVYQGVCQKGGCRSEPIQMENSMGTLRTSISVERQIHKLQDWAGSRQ
Description: In order to enable expression of the cDNA that encodes for the B2 bradykinin receptor, COS-7 cells were transfected using LIPOFECTIN (BRL, Gaithersburg, Md.) with 50ug/10^7 cells of the B2 receptor cDNA subcloned into the eukaryotic expression vector pcDNA I-Neo (Invitrogen). Cells were then harvested after 72 hours and the membranes containing the expressed receptor protein were prepared by scraping the cells in phosphate buffered saline solution and centrifuging for ten minutes at 500× g. The cell pellet was then resuspended and homogenized with a Polytron in 20 mM N-tris(hydroxymethyl)methyl-2-aminoethane sulfonic acid (TES,pH 6.8 at room temperature) buffer containing 1 mM 1, 10 phenanthroline. The homogenate was then centrifuged for ten minutes at 500 × g. The final membrane pellet was resuspended in assay buffer (TES plus 0.1% protease free bovine serum albumin, 5 uM MK-422 (enalaprilat; Gross et al., 1981) and 140 ug/ml bacitracin using a motor-driven teflon-glass tissue homogenizer. Protein determination was performed by the method of Bradford using bovine IgG as the standard. See Bradford, M.A. Anal. Biochem. 72, 248-254 (1976).
Binding assays were then performed to determine receptor antagonist or agonist interaction. The assays utilized in the instant invention follow the method of Manning et al., J. Pharmacol. Exp. Ther., 237, 504-512 (1986). […] (BRANDEL, Gaithersburg, Md.). The tubes were rinsed two times with 4 ml ice-cold […] and the filter bound radioactivity was quantitated by liquid scintillation counting. […] The competition and saturation experiments were analyzed using the EBDA program of McPherson. See McPherson, G.A. J Pharmacol. Methods 14, 213-218 (1985).

rat vas deferens = details: cited from earlier work
[5] = biological target: T1, mouse B2 bradykinin receptor; test: Saturation binding to whole COS cells transiently expressing the mouse B2 receptor; details: single high affinity site, read-out: KD for [3H]BK
Description: as §1, with “[^3 H]BK at various concentrations was incubated for 60 minutes at 25° C. with approximately 50ug membrane protein from COS-7 cells in a volume of 1 ml.” left out
To verify the pharmacological properties of the mouse bradykinin B2 receptor the coding sequence of the mouse B2 bradykinin receptor was isolated by PCR (Perkin Elmer/Cetus) using a Techne thermocycler with the template being the EcoR I by Hind III genomic fragment in pSP72 and the 5' primer 5'-[…]-3' (SEQ.ID.NO.:8) and the 3' primer 5'- […]-3' (SEQ.ID.NO.:9). […]

Nc1nc2c(ncn2[C@@H]2O[C@H](COP(=O)(O)OP(=O)(O)NP(=O)(O)O)[C@@H](O)[C@H]2O)c(=O)[nH]1 [5'guanylylimidodiphosphate]
binding of BK to membranes [1]: reduced

O=c1[nH]c(=O)n([C@@H]2O[C@H](CO)[C@@H](O)[C@@H]2F)cc1I [FIAU, 1-(2-deoxy 2-fluoro-B-D-arabinofluranosyl)-5-iodouracil]
fewer background pBS-KO-1 transformants [2]: about eleven

Nc1nc2c(ncn2[C@@H]2O[C@H](COP(=O)(O)OP(=O)(O)OP(=O)(O)O)[C@@H](O)[C@H]2O)c(=O)[nH]1 [GTP, guanosine triphosphate]
binding of BK to membranes [1]: reduced

N=C(N)NCCC[C@H](NC(=O)[C@@H](N)CCCCN)C(=O)N1CCC[C@H]1C(=O)N1CCC[C@H]1C(=O)NCC(=O)N[C@@H](Cc1ccccc1)C(=O)N[C@@H](CO)C(=O)N1CCC[C@H]1C(=O)N[C@@H](Cc1ccccc1)C(=O)O [[des-Arg^10]-kallidin]
IC50 [3]: 25 µM | affinity [3]: very low affinity

Nc1nc2c(ncn2[C@@H]2O[C@H](COP(=O)(O)OP(=O)(O)OP(O)(O)=S)[C@@H](O)[C@H]2O)c(=O)[nH]1 [guanosine 5'-O-(3-thiotriphosphate)]
binding of BK to membranes [1]: reduced

N=C(N)NCCC[C@H](NC(=O)[C@H](Cc1ccccc1)NC(=O)[C@@H]1CCCN1C(=O)[C@H](CO)NC(=O)[C@H](Cc1ccccc1)NC(=O)CNC(=O)[C@@H]1CCCN1C(=O)[C@@H]1CCCN1C(=O)[C@H](CCCNC(=N)N)NC(=O)[C@@H](N)CCCCN)C(=O)O [kallidin]
affinity [3]: high (subnanomolar) affinity | specificity of binding (rank order) [4]: BK>lys-BK>met-lys-BK

CSCC[C@H](N)C(=O)N[C@@H](CCCCN)C(=O)N[C@@H](CCCNC(=N)N)C(=O)N1CCC[C@H]1C(=O)N1CCC[C@H]1C(=O)NCC(=O)N[C@@H](Cc1ccccc1)C(=O)N[C@@H](CO)C(=O)N1CCC[C@H]1C(=O)N[C@@H](Cc1ccccc1)C(=O)N[C@@H](CCCNC(=N)N)C(=O)O [met-lys-BK]
specificity of binding (rank order) [4]: BK>lys-BK>met-lys-BK

CC[C@H](C)[C@@H]1NC(=O)[C@H](Cc2ccc(O)cc2)NC(=O)[C@@H](N)CSSC[C@@H](C(=O)N2CCC[C@H]2C(=O)N[C@@H](CC(C)C)C(=O)NCC(N)=O)NC(=O)[C@H](CC(N)=O)NC(=O)[C@H](CCC(N)=O)NC1=O [oxytocin]
competition for BK binding ([4]; human B2 receptor): No competition for BK binding

D-Arg^0-[Hyp^2,3, Thi^5,8 D-Phe^7 ]BK
IC50 [4]: 27 nM

Des-Arg^9,LeuBK: B1 antagonist
antagonism of BK responses (rat vas deferens; high concentrations, vas deferens): failed to antagonize BK responses | pre- or postsynaptic BK like responses (rat vas deferens; rat vas deferens): inactive | inhibition of BK binding ([4]; 10 uM, human B2 receptor): 11%

[Thi^5,8,D-Phe^7 ]BK
IC50 [4]: 180 nM

[^3 H]BK: radioligand [3H]BK used in binding assays (RPPGFSPFR; also: tritium label; UniProt P01042 381-389, looked up)
Kd [5]: 0.2 ± 0.03 nM

angiotensin I: peptide (DRVYIHPFHL; Angiotensin-1; UniProt P01019 25-34, looked up)
competition for BK binding ([4]; human B2 receptor): No competition for BK binding

angiotensin II: peptide (DRVYIHPF; Angiotensin-2; UniProt P01019 25-32, looked up)
competition for BK binding ([4]; human B2 receptor): No competition for BK binding

endothelin: peptide
competition for BK binding ([4]; human B2 receptor): No competition for BK binding

neurotensin
competition for BK binding ([4]; human B2 receptor): No competition for BK binding
